# Source: patent publication US20110053773A1, “METHODS OF IMPROVING NUTRITIONAL VALUE OF PLANTS” (UNIVERSITY OF TENNESSEE RESEARCH FOUNDATION, priority 2009, published 2011)
# How the values were obtained:
# basil 'Genovese' [1] = assay: Visual injury of basil after insecticide, fungicide, PGRs, safeners (Example 4)
# Procedure: (§1) Greenhouse and laboratory studies were conducted to ascertain the tolerance and nutritional quality differences following postemergence applications of the insecticide chlorpyrifos, the fungicide chlorothalonil, the PGRs mepiquat-chloride and paclobutrazol, and the safeners napthalic anhydride and isoxadifen-ethyl on kale ‘Red Russian’ and basil ‘Genovese’. Visual injury was rated based on general phytotoxicity, chlorosis, and visual stunting and each measurement was based on a percent scale from 0 to 100 where 0 equals no visual response and 100 equals complete plant death. Kale and basil were both harvested approximately 4 weeks after treatments and plants were pooled over replicates for content analysis of crude protein, crude amino acid content, acid detergent fiber, neutral detergent fiber, total fatty acids, and/or key mineral content (including Na, Ca, P, Mg, K, Fe, Mn, Zn, and Cu). In addition, the amounts of key individual amino acids (aspartic acid, threonine, glutamic acid, proline, glycine, cysteine, valine, leucine, isoleucine, methionine, and lysine) and composite classifications of fatty acid (saturated fatty acids, monounsaturated fatty acids, polyunsaturated fatty acids) were also analyzed from these sub-samples for kale (Tables 10-14).
# basil 'Genovese' [2] = assay: Content analysis of basil: protein, minerals (Example 4, Tables 10-11); assay type: in vivo; settings: 28 DA-A
# Procedure: as §1
# basil ‘Genovese’ = assay: Yield, fresh weight of basil after insecticide, fungicide, PGRs and safeners (Example 4, Table 10); assay type: in vivo; settings: DA-A, check 31.8
# Procedure: as §1
# [3] = test system: sweet corn (Zea mays var. rugosa) cultivar 'Incredible'; assay: Content analysis of sweet corn ears: crude protein, amino acids, detergent fiber, fatty acids, minerals (Example 1); assay type: in vivo; settings: POST at b59 rates; every treatment incl. check also got atrazine 560 g ai/ha + COC 1% v/v; relative to treated check (atrazine), check=0
# Description: Herbicide treatments were applied in a water carrier at 23 gallons of solution per acre on a field site near Knoxville, Tenn. and Painter, Va. Treatments include the following: 1) nicosulfuron at 35 g ai/ha (Accent); 2) mesotrione at 105 g ai/ha (Callisto); 3) nicosulfuron at 35 g ai/ha+mesotrione at 105 g ai/ha (Callisto+Accent); 4) tembotrione at 92 g ai/ha+isoxadifen-ethyl at 46 g ai/ha (Laudis); 5) topramezone at 15 g ai/ha (Impact); 6) nicosulfuron at 35 g ai/ha+isoxadifen-ethyl at 9 g ai/ha (Accent Q); 7) nicosulfuron at 35 g ai/ha+isoxadifen-ethyl at 9 g ai/ha+topramezone at 15 g ai/ha (Accent Q+Impact); 8) nicosulfuron 35 g ai/ha+isoxadifen-ethyl at 9 g ai/ha+mesotrione at 105 g ai/ha (Accent Q+Callisto); 9) treated check (atrazine or Aatrex). All treatments included a PRE application of atrazine plus metolachlor in order to maintain weed free conditions. In addition, all POST treatments (including the treated check) included atrazine at 560 g ai/ha and crop oil concentrate at 1% v/v. […] Sweet corn was harvested from the center two rows of each four row plot and weighed in the husk.
# [4] = test system: sweet corn cultivars 'Merit', 'Temptation', 'Incredible'; assay: Kernel carotenoids of sweet corn after mesotrione and atrazine (Example 3); assay type: in vivo; parameters: Kernel carotenoids: Lutein / Kernel carotenoids: Zeaxanthin: unit not given here; settings: mesotrione 105, atrazine 560 g ai/ha
# Procedure: (§2) Studies were conducted in a field in Knoxville, Tenn. to ascertain the growth, stress tolerance and nutritional quality differences following postemergence applications of herbicides mesotrione and atrazine, alone and in mixtures together, on the young sweet corn cultivars: ‘Merit’ (yellow-kernel sensitive genotype), ‘Temptation’ (bicolor tolerant genotype), and ‘Incredible’ (yellow-kernel moderately sensitive genotype).
# (§3) Herbicide treatments were applied as follows: 1) untreated control; 2) mesotrione (meso) at 105 g ai/ha EPOST; 3) mesotrione at 105+atrazine at 560 g ai/ha EPOST; 4) atrazine at 560 g ai/ha EPOST; 5) mesotrione at 105 g ai/ha LPOST; 6) mesotrione at 105+atrazine at 560 g ai/ha LPOST; and 7) atrazine at 560 g ai/ha LPOST. Visual ratings of plant growth were taken during season, and kernels for carotenoids were measured at harvest.
# [5] = test system: sweet corn cultivars 'Merit', 'Temptation', 'Incredible'; assay: Visual leaf tissue bleaching of sweet corn (Example 3, Table 9); assay type: in vivo; settings: mesotrione 105, atrazine 560 g ai/ha
# Procedure: as §2, §3
# [6] = 7 DA-A, rates g ai/ha: chlropyrifos 1120, chlorothalonil 2630, paclobutrazol 3.23, mepiquat-chloride 12.3, Isoxadifen 8, Napthalic anhydride 264, + NIS 0.25 % v/v
# [7] = 7 DA-A, rates g ai/ha: chlropyrifos 3370, chlorothalonil 7900, paclobutrazol 9.7, mepiquat-chloride 37, Isoxadifen 16, Napthalic anhydride 527, + NIS 0.25 % v/v
# [8] = 14 DA-A, rates g ai/ha: chlropyrifos 1120, chlorothalonil 2630, paclobutrazol 3.23, mepiquat-chloride 12.3, Isoxadifen 8, Napthalic anhydride 264, + NIS 0.25 % v/v
# [9] = 14 DA-A, rates g ai/ha: chlropyrifos 3370, chlorothalonil 7900, paclobutrazol 9.7, mepiquat-chloride 37, Isoxadifen 16, Napthalic anhydride 527, + NIS 0.25 % v/v
# [10] = 28 DA-A, rates g ai/ha: chlropyrifos 1120, chlorothalonil 2630, paclobutrazol 3.23, mepiquat-chloride 12.3, Isoxadifen 8, Napthalic anhydride 264, + NIS 0.25 % v/v
# [11] = 28 DA-A, rates g ai/ha: chlropyrifos 3370, chlorothalonil 7900, paclobutrazol 9.7, mepiquat-chloride 37, Isoxadifen 16, Napthalic anhydride 527, + NIS 0.25 % v/v
# [12] = rates g ai/ha: chlroprifos 3370, chlorothalonil 7900, paclobutrazol 9.7, mepiquat-chloride 37, Isoxadifen 16, Napthalic anhydride 527, + NIS 0.25 % v/v
# [13] = rates g ai/ha: chlropyrifos 1120, chlorothalonil 2630, paclobutrazol 3.23, mepiquat-chloride 12.3, Isoxadifen 8, Napthalic anhydride 264, + NIS 0.25 % v/v
# [14] = 'Incredible' moderately sensitive genotype, EPOST
# [15] = 'Incredible' moderately sensitive genotype, LPOST
# [16] = 'Merit' sensitive genotype, EPOST
# [17] = 'Merit' sensitive genotype, LPOST
structure (smiles),measurement,setting,value
O=C1OC(=O)c2cccc3cccc1c23 [napthalic anhydride],Phytotoxicity Chlorosis,basil 'Genovese' [1]; [6],0%
same,Phytotoxicity General,basil 'Genovese' [1]; [6],5%
same,Phytotoxicity Stunting,basil 'Genovese' [1]; [6],0%
same,Phytotoxicity Chlorosis,basil 'Genovese' [1]; [7],2%
same,Phytotoxicity General,basil 'Genovese' [1]; [7],7%
same,Phytotoxicity Stunting,basil 'Genovese' [1]; [7],5%
same,Phytotoxicity Chlorosis,basil 'Genovese' [1]; [8],3%
same,Phytotoxicity General,basil 'Genovese' [1]; [8],7%
same,Phytotoxicity Stunting,basil 'Genovese' [1]; [8],0%
same,Phytotoxicity Chlorosis,basil 'Genovese' [1]; [9],2%
same,Phytotoxicity General,basil 'Genovese' [1]; [9],10%
same,Phytotoxicity Stunting,basil 'Genovese' [1]; [9],7%
same,Phytotoxicity Chlorosis,basil 'Genovese' [1]; [10],2%
same,Phytotoxicity General,basil 'Genovese' [1]; [10],5%
same,Phytotoxicity Stunting,basil 'Genovese' [1]; [10],0%
same,Phytotoxicity Chlorosis,basil 'Genovese' [1]; [11],2%
same,Phytotoxicity General,basil 'Genovese' [1]; [11],3%
same,Phytotoxicity Stunting,basil 'Genovese' [1]; [11],7%
same,"ADF, Percent Increase Over the Untreated Check (on a % dry matter basis)",basil 'Genovese' [2]; [12],4 % check
same,"Calcium, Percent Increase Over the Untreated Check (on a % dry matter basis)",basil 'Genovese' [2]; [12],−8 % check
same,"Copper, Percent Increase Over the Untreated Check (on a % dry matter basis)",basil 'Genovese' [2]; [12],−17 % check
same,"Iron, Percent Increase Over the Untreated Check (on a % dry matter basis)",basil 'Genovese' [2]; [12],0 % check
same,"Magnesium, Percent Increase Over the Untreated Check (on a % dry matter basis)",basil 'Genovese' [2]; [12],−6 % check
same,"Manganese, Percent Increase Over the Untreated Check (on a % dry matter basis)",basil 'Genovese' [2]; [12],−16 % check
same,"NDF, Percent Increase Over the Untreated Check (on a % dry matter basis)",basil 'Genovese' [2]; [12],1 % check
same,"Phosphorous, Percent Increase Over the Untreated Check (on a % dry matter basis)",basil 'Genovese' [2]; [12],−9 % check
same,"Potassium, Percent Increase Over the Untreated Check (on a % dry matter basis)",basil 'Genovese' [2]; [12],−23 % check
same,"Protein, Percent Increase Over the Untreated Check (on a % dry matter basis)",basil 'Genovese' [2]; [12],3 % check
same,"Sodium, Percent Increase Over the Untreated Check (on a % dry matter basis)",basil 'Genovese' [2]; [12],−8 % check
same,"Soluble protein, Percent Increase Over the Untreated Check (on a % dry matter basis)",basil 'Genovese' [2]; [12],31 % check
same,"Zinc, Percent Increase Over the Untreated Check (on a % dry matter basis)",basil 'Genovese' [2]; [12],−13 % check
same,"ADF, Percent Increase Over the Untreated Check (on a % dry matter basis)",basil 'Genovese' [2]; [13],13 % check
same,"Calcium, Percent Increase Over the Untreated Check (on a % dry matter basis)",basil 'Genovese' [2]; [13],2 % check
same,"Copper, Percent Increase Over the Untreated Check (on a % dry matter basis)",basil 'Genovese' [2]; [13],0 % check
same,"Iron, Percent Increase Over the Untreated Check (on a % dry matter basis)",basil 'Genovese' [2]; [13],14 % check
same,"Magnesium, Percent Increase Over the Untreated Check (on a % dry matter basis)",basil 'Genovese' [2]; [13],12 % check
same,"Manganese, Percent Increase Over the Untreated Check (on a % dry matter basis)",basil 'Genovese' [2]; [13],37 % check
same,"NDF, Percent Increase Over the Untreated Check (on a % dry matter basis)",basil 'Genovese' [2]; [13],2 % check
same,"Phosphorous, Percent Increase Over the Untreated Check (on a % dry matter basis)",basil 'Genovese' [2]; [13],22 % check
same,"Potassium, Percent Increase Over the Untreated Check (on a % dry matter basis)",basil 'Genovese' [2]; [13],−4 % check
same,"Protein, Percent Increase Over the Untreated Check (on a % dry matter basis)",basil 'Genovese' [2]; [13],32 % check
same,"Sodium, Percent Increase Over the Untreated Check (on a % dry matter basis)",basil 'Genovese' [2]; [13],33 % check
same,"Soluble protein, Percent Increase Over the Untreated Check (on a % dry matter basis)",basil 'Genovese' [2]; [13],4 % check
same,"Zinc, Percent Increase Over the Untreated Check (on a % dry matter basis)",basil 'Genovese' [2]; [13],47 % check
same,Yield Fresh weight,basil ‘Genovese’; [13],41.5 grams
same,Yield Fresh weight,"basil ‘Genovese’; rates g ai/ha: chlropyrifos 3370, chlorothalonil 7900, paclobutrazol 9.7, mepiquat-chloride 37, Isoxadifen 16, Napthalic anhydride 527, + NIS 0.25 % v/v",24.5 grams
"CCNc1nc(Cl)nc(NC(C)C)n1 [Atrazine*AATREX, atrazine]",Acid DF,[3],0 % of check
same,Alanine,[3],0 % of check
same,Amino Acid,[3],0 % of check
same,Aspartic ac,[3],0 % of check
same,Cysteine,[3],0 % of check
same,Glutamic ac,[3],0 % of check
same,Glycine,[3],0 % of check
same,Isoleucine,[3],0 % of check
same,Leucine,[3],0 % of check
same,Lysine,[3],0 % of check
same,Methionine,[3],0 % of check
same,Neutral DF,[3],0 % of check
same,Proline,[3],0 % of check
same,Protein,[3],0 % of check
same,Threonine,[3],0 % of check
same,Valine,[3],0 % of check
same,calcium,[3],0 % of check
same,copper,[3],0 % of check
same,iron,[3],0 % of check
same,magnesium,[3],0 % of check
same,manganese,[3],0 % of check
same,mon fattyac,[3],0 % of check
same,phosphorous,[3],0 % of check
same,polyfattyac,[3],0 % of check
same,potassium,[3],0 % of check
same,sat fattyac,[3],0 % of check
same,sodium,[3],0 % of check
same,tot fattyac,[3],0 % of check
same,zinc,[3],0 % of check
same,Lutein % change from untreated control,[4]; [14],+7.6%
same,Zeaxanthin % change from untreated control,[4]; [14],−0.0%
same,Kernel carotenoids: Lutein,"[4]; 'Incredible' moderately sensitive genotype, EPOST, untreated 0.328",0.353
same,Kernel carotenoids: Zeaxanthin,"[4]; 'Incredible' moderately sensitive genotype, EPOST, untreated 0.448",0.447
same,Lutein % change from untreated control,[4]; [15],+6.0%
same,Zeaxanthin % change from untreated control,[4]; [15],+1.3%
same,Kernel carotenoids: Lutein,"[4]; 'Incredible' moderately sensitive genotype, LPOST, untreated 0.328",0.347
same,Kernel carotenoids: Zeaxanthin,"[4]; 'Incredible' moderately sensitive genotype, LPOST, untreated 0.448",0.454
same,Kernel carotenoids: Lutein,[4]; [16],0.692
same,Lutein % change from untreated control,[4]; [16],+9.5%
same,Zeaxanthin % change from untreated control,[4]; [16],+10.8%
same,Kernel carotenoids: Zeaxanthin,"[4]; 'Merit' sensitive genotype, EPOST, untreated 0.509",0.564
same,Kernel carotenoids: Lutein,[4]; [17],0.664
same,Lutein % change from untreated control,[4]; [17],+5.1%
same,Zeaxanthin % change from untreated control,[4]; [17],+8.1%
same,Kernel carotenoids: Zeaxanthin,"[4]; 'Merit' sensitive genotype, LPOST, untreated 0.509",0.550
same,Leaf Tissue Visual Bleaching (%),"[5]; ‘Incredible’, 7 DAT, EPOST",13%
same,Leaf Tissue Visual Bleaching (%),"[5]; ‘Incredible’, 7 DAT, LPOST",0%
same,Leaf Tissue Visual Bleaching (%),"[5]; ‘Incredible’, 14 DAT, EPOST",13%
same,Leaf Tissue Visual Bleaching (%),"[5]; ‘Incredible’, 14 DAT, LPOST",0%
same,Leaf Tissue Visual Bleaching (%),"[5]; ‘Incredible’, 21 DAT, EPOST",0%
same,Leaf Tissue Visual Bleaching (%),"[5]; ‘Incredible’, 21 DAT, LPOST",0%
same,Leaf Tissue Visual Bleaching (%),"[5]; ‘Merit’, 7 DAT, EPOST",3%
same,Leaf Tissue Visual Bleaching (%),"[5]; ‘Merit’, 7 DAT, LPOST",0%
same,Leaf Tissue Visual Bleaching (%),"[5]; ‘Merit’, 14 DAT, EPOST",2%
same,Leaf Tissue Visual Bleaching (%),"[5]; ‘Merit’, 14 DAT, LPOST",0%
same,Leaf Tissue Visual Bleaching (%),"[5]; ‘Merit’, 21 DAT, EPOST",0%
same,Leaf Tissue Visual Bleaching (%),"[5]; ‘Merit’, 21 DAT, LPOST",0%
